Source: patent US10961539B2, “Promoter system inducing expression by 3-hydroxypropionic acid and method for biological production of 3-hydroxypropionic acid using same” (NOROO IC Co., Ltd., priority 2015, dated 2021)
Several values for one entry are separate records, joined by “and”; a condition that tells them apart may be missing. Identical values can stand only once. Like-named read-outs stand apart in the source and are kept apart here.

Key:
[1] = test system: 3hpdh, 3hibdhIV, and mmsadh; assay: Inducer specificity of gene expression (FIGS. 4 and 5); assay type: cell-based, Pseudomonas denitrificans
C4-LysR = assay: GFP reporter inserted at C4-LysR position; assay type: cell-based, Pseudomonas denitrificans; conditions: w 3-HP 25 mM
From the text: (§1) The effect of the O1 and O2 operators on biosynthesis of the C4-LysR protein and the mmsadh expression was examined by using a green fluorescent protein (GFP) as a reporter (Table 2). In Table 2, the effect of the C4-LysR protein and the O1 and O2 operators on the expression of the C4-LysR and the mmsadh. The relative size of the GFP was shown relative to the wild type in the absence of 3-HP. the C4-LysR protein was either not present or was produced by a constitutive promoter, and a plasmid was prepared to control the expression of the GFP upon the existing promoter having the O1 and O2 operators. Then, the experiment was carried out by inserting the prepared plasmid into a host of P. denitrificans from which genes between the C4-LysR and the mmsadh was deleted. Accordingly, the expression of the GFP was suppressed by the C4-LysR protein itself. That is, when the C4-LysR is expressed, the GFP expression was reduced by more than 10-fold. In addition, the expression regulation was also constant regardless of the presence of 3-HP. In this regard, it was confirmed that the transcription of C4-LysR mRNA was negatively regulated by the C4-LysR protein. This experiment was repeated by using a promoter that randomized the O1 and O2 operators to eliminate the symmetrical dyad. As a result, in the case where the O1 or O2 operator site was randomized, the GFP expression was not regulated by the C4-LysR protein, referring that the C4-LysR protein in the P. denitrificans strain was negatively regulated by the strain itself.

mmsadh [2] = assay: GFP reporter inserted at mmsadh position; assay type: cell-based, Pseudomonas denitrificans; conditions: w 3-HP 25 mM
From the text: as §1
Meanwhile, the effect of the O1 and O2 operators on the mmsadh gene expression was examined in a similar manner. That is, the C4-LysR protein was constitutively expressed, and a plasmid was prepared so that GFP can be located after a promoter having O1 and O2 promoters. Here, an O1 or O2 operator was mutated so that the symmetrical dyad of an O1 or O2 site was randomized. As a result, when the O1 or O2 site was mutated, the phenomenon of up-regulation of transcription by 3-HP disappeared. That is, it means that the O1 and O2 operators are all essential sites for up-regulation of the expression by 3-HP.

[3] = test system: C4-LysR protein and promoter DNA fragments; assay: Electrophoretic mobility shift assay (EMSA) of C4-LysR protein with promoter DNA fragments; assay type: binding, Pseudomonas denitrificans; conditions: 25 mM 3-HP
3hibdh = assay type: cell-based, microorganisms shown in Table 1
3hpdh = assay: RT-PCR relative mRNA level of 3-HP catabolic gene
3hibdhIV = assay: RT-PCR relative mRNA level of 3-HP catabolic gene
mmsadh [4] = assay: RT-PCR relative mRNA level of 3-HP catabolic gene
[5] = cells exposed to 25 mmol/L 3-HP vs no 3-HP, M9 medium, rpoD reference gene
[6] = strain with C4 LysR gene removed

In the case of `O=C(O)CCO` [3-HP, 3-hydroxypropionic acid], the “inducer of expression of mmsadh and 3hibdhIV” value ([1]; FIG. 4) was “acts as an inducer”, the “amplification of the genes 3hpdh, 3hibdhIV and mmsadh by the compound” value ([1]; FIGS. 4 and 5) was “amplified” and the “relative size of GFP (relative to wild type in the absence of 3-HP)” value (“relative size of GFP” below) (C4-LysR; O1 & O2 mutation) was 10. For the same compound, the “relative size of GFP” value (C4-LysR; O1 mutation) was 10, the “relative size of GFP” value (C4-LysR; O2 mutation) was 1 and the “relative size of GFP” value (C4-LysR; wildtype) was 1. The “relative size of GFP” value (C4-LysR; ΔC4-LysR) was 10, the “relative size of GFP” value (mmsadh [2]; O1 & O2 mutation) was 3 and the “relative size of GFP” value (mmsadh [2]; O1 mutation) was 3. The “relative size of GFP” value (mmsadh [2]; O2 mutation) was 3, the “relative size of GFP” value (mmsadh [2]; wildtype) was 55 and the “relative size of GFP” value (mmsadh [2]; ΔC4-LysR) was 3. The “change of affinity of C4-LysR protein to DNA fragment in the presence of 3-HP” value (from here on “change of affinity of C4-LysR protein”) ([3]; fragment F1) was “barely changed affinity”, the “change of affinity of C4-LysR protein” value ([3]; fragment F2) was “slightly decreased affinity” and the “change of affinity of C4-LysR protein” value ([3]; fragment F12 (O1 and O2 operators)) was “increased affinity”. The “Relative mRNA level 3hibdh + 3-HP” value (3hibdh) was 7.21 and 6.43, the “Relative mRNA level 3hibdh + 3-HP” value (3hibdh; Achromobacter denitrificans, + 3-HP) was 6.40 and the “Relative mRNA level 3hibdh + 3-HP” value (3hibdh; Acidovorax avenae subsp., + 3-HP) was 5.97. The “Relative mRNA level 3hibdh + 3-HP” value (3hibdh; Acidovorax sp., + 3-HP) was 6.76, the “Relative mRNA level 3hibdh + 3-HP” value (3hibdh; Acinetobacter baumannii, + 3-HP) was 6.02 and the “Relative mRNA level 3hibdh + 3-HP” value (3hibdh; Aeromonas hydrophilia, + 3-HP) was 6.17. The “Relative mRNA level 3hibdh + 3-HP” value (3hibdh; Agrobacterium sp., + 3-HP) was 6.27, the “Relative mRNA level 3hibdh + 3-HP” value (3hibdh; Alcaligenes faecalis, + 3-HP) was 5.87 and the “Relative mRNA level 3hibdh + 3-HP” value (3hibdh; Alcanivorax hongdengensis, + 3-HP) was 6.74. For the same compound, the “Relative mRNA level 3hibdh + 3-HP” value (3hibdh; Alicychphilus denitrificans, + 3-HP) was 7.01, the “Relative mRNA level 3hibdh + 3-HP” value (3hibdh; Alteromonas marina, + 3-HP) was 6.09 and the “Relative mRNA level 3hibdh + 3-HP” value (3hibdh; Amycolatopsis sp., + 3-HP) was 5.96. The “Relative mRNA level 3hibdh + 3-HP” value (3hibdh; Anaeromyxobacter dehalogenans, + 3-HP) was 6.43, the “Relative mRNA level 3hibdh + 3-HP” value (3hibdh; Azospirillum brasilensse, + 3-HP) was 6.54 and the “Relative mRNA level 3hibdh + 3-HP” value (3hibdh; Azotobacter vinelandii, + 3-HP) was 6.73. The “Relative mRNA level 3hibdh + 3-HP” value (3hibdh; Beijerinckia indica, + 3-HP) was 6.59, the “Relative mRNA level 3hibdh + 3-HP” value (3hibdh; Bordetella avium, + 3-HP) was 6.04 and the “Relative mRNA level 3hibdh + 3-HP” value (3hibdh; Bradyrhizobium japonicum, + 3-HP) was 7.21. The “Relative mRNA level 3hibdh + 3-HP” value (3hibdh; Burkholderia ambifaria, + 3-HP) was 5.94, the “Relative mRNA level 3hibdh + 3-HP” value (3hibdh; Castellaniella defragrans, + 3-HP) was 7.43 and the “Relative mRNA level 3hibdh + 3-HP” value (3hibdh; Catenulispora acidiphilia, + 3-HP) was 5.84. The “Relative mRNA level 3hibdh + 3-HP” value (3hibdh; Caulobacter sp., + 3-HP) was 5.96, the “Relative mRNA level 3hibdh + 3-HP” value (3hibdh; Chromobacterium violaceum, + 3-HP) was 7.02 and the “Relative mRNA level 3hibdh + 3-HP” value (3hibdh; Collimonas arenae, + 3-HP) was 7.20. The “Relative mRNA level 3hibdh + 3-HP” value (3hibdh; Comamonas testosteroni, + 3-HP) was 5.88, the “Relative mRNA level 3hibdh + 3-HP” value (3hibdh; Corynebacterium vitaeruminis, + 3-HP) was 6.99 and the “Relative mRNA level 3hibdh + 3-HP” value (3hibdh; Cupriavidus necator, + 3-HP) was 6.84. The “Relative mRNA level 3hibdh + 3-HP” value (3hibdh; Curvibacter gracilus, + 3-HP) was 5.76, the “Relative mRNA level 3hibdh + 3-HP” value (3hibdh; Delftia acidovorans, + 3-HP) was 6.34 and the “Relative mRNA level 3hibdh + 3-HP” value (3hibdh; Ferrimonas balearica, + 3-HP) was 7.04. The “Relative mRNA level 3hibdh + 3-HP” value (3hibdh; Glaciecola nitratireducens, + 3-HP) was 7.11, the “Relative mRNA level 3hibdh + 3-HP” value (3hibdh; Gordonia bronchialis, + 3-HP) was 6.99 and the “Relative mRNA level 3hibdh + 3-HP” value (3hibdh; Hahella chijuensis, + 3-HP) was 6.81. For the same compound, the “Relative mRNA level 3hibdh + 3-HP” value (3hibdh; Halomonas elongata, + 3-HP) was 5.41, the “Relative mRNA level 3hibdh + 3-HP” value (3hibdh; Hirschia litorea, + 3-HP) was 6.19 and the “Relative mRNA level 3hibdh + 3-HP” value (3hibdh; Idiomarina sp., + 3-HP) was 7.21. The “Relative mRNA level 3hibdh + 3-HP” value (3hibdh; Janthinobacterium lividum, + 3-HP) was 6.98, the “Relative mRNA level 3hibdh + 3-HP” value (3hibdh; Kitasatospora setae, + 3-HP) was 6.46 and the “Relative mRNA level 3hibdh + 3-HP” value (3hibdh; Kutzneria albida, + 3-HP) was 5.96. For the same compound, the “Relative mRNA level 3hibdh + 3-HP” value (3hibdh; Methylobacterium sp., + 3-HP) was 6.02, the “Relative mRNA level 3hibdh + 3-HP” value (3hibdh; Methylocystis sp., + 3-HP) was 6.51 and the “Relative mRNA level 3hibdh + 3-HP” value (3hibdh; Novosphingobium sp., + 3-HP) was 5.98. For the same compound, the “Relative mRNA level 3hibdh + 3-HP” value (3hibdh; Oceanimonas smirnovii, + 3-HP) was 6.44, the “Relative mRNA level 3hibdh + 3-HP” value (3hibdh; Paracoccus sp., + 3-HP) was 6.32 and the “Relative mRNA level 3hibdh + 3-HP” value (3hibdh; Parvibaculum lavamentivorans, + 3-HP) was 7.31. The “Relative mRNA level 3hibdh + 3-HP” value (3hibdh; Phenylobacterium kunshanensis, + 3-HP) was 7.43, the “Relative mRNA level 3hibdh + 3-HP” value (3hibdh; Photobacterium gaetbuleda, + 3-HP) was 7.02 and the “Relative mRNA level 3hibdh + 3-HP” value (3hibdh; Polynucleobacter necessarius asymbioticus, + 3-HP) was 6.99. For the same compound, the “Relative mRNA level 3hibdh + 3-HP” value (3hibdh; Pseudoalteromonas carrgeenovora, + 3-HP) was 5.76, the “Relative mRNA level 3hibdh + 3-HP” value (3hibdh; Pseudogulbenkiania sp., + 3-HP) was 5.98 and the “Relative mRNA level 3hibdh + 3-HP” value (3hibdh; Pseudomonas denitrificans ATCC13867, + 3-HP) was 6.20. For the same compound, the “Relative mRNA level 3hibdh + 3-HP” value (3hibdh; Pseudomonas fluorescens, + 3-HP) was 5.81, the “Relative mRNA level 3hibdh + 3-HP” value (3hibdh; Pseudomonas knackmussii, + 3-HP) was 6.81 and the “Relative mRNA level 3hibdh + 3-HP” value (3hibdh; Pseudomonas protegens, + 3-HP) was 5.62. The “Relative mRNA level 3hibdh + 3-HP” value (3hibdh; Pseudoxanthomonas spadix, + 3-HP) was 5.99, the “Relative mRNA level 3hibdh + 3-HP” value (3hibdh; Psychrobacter phenylpyruvicus, + 3-HP) was 7.04 and the “Relative mRNA level 3hibdh + 3-HP” value (3hibdh; Rhodomicrobium vannielli, + 3-HP) was 7.01. The “Relative mRNA level 3hibdh + 3-HP” value (3hibdh; Segniliparus rotundus, + 3-HP) was 5.81, the “Relative mRNA level 3hibdh + 3-HP” value (3hibdh; Shewanella oneidensis, + 3-HP) was 5.81 and the “Relative mRNA level 3hibdh + 3-HP” value (3hibdh; Simiduia agarovorans, + 3-HP) was 5.76. The “Relative mRNA level 3hibdh + 3-HP” value (3hibdh; Sinorhizobium meliloti, + 3-HP) was 5.79, the “Relative mRNA level 3hibdh + 3-HP” value (3hibdh; Sphingobium chlorophenolicum, + 3-HP) was 5.99 and the “Relative mRNA level 3hibdh + 3-HP” value (3hibdh; Sphingomonas wittichii, + 3-HP) was 7.02. For the same compound, the “Relative mRNA level 3hibdh + 3-HP” value (3hibdh; Sphingopyxis alaskensis, + 3-HP) was 7.00, the “Relative mRNA level 3hibdh + 3-HP” value (3hibdh; Stenotrophomonas maltophilia, + 3-HP) was 6.02 and the “Relative mRNA level 3hibdh + 3-HP” value (3hibdh; Streptomyces nodosus, + 3-HP) was 6.72. The “Relative mRNA level 3hibdh + 3-HP” value (3hibdh; Tatlockia micdadei, + 3-HP) was 6.61, the “Relative mRNA level 3hibdh + 3-HP” value (3hibdh; Thalassospira xiamenensis, + 3-HP) was 7.02 and the “Relative mRNA level 3hibdh + 3-HP” value (3hibdh; Variovorax paradoxus, + 3-HP) was 6.59. For the same compound, the “Relative mRNA level 3hibdh + 3-HP” value (3hibdh; Verminephrobacter eiseniae, + 3-HP) was 6.43, the “Relative mRNA level 3hibdh + 3-HP” value (3hibdh; Vibrio furnissii, + 3-HP) was 6.03 and the “Relative mRNA level 3hibdh + 3-HP” value (3hibdh; Xanthobacter autotrophicus, + 3-HP) was 6.23. The “Relative mRNA level 3hibdh + 3-HP” value (3hibdh; Xanthomonas campestri, + 3-HP) was 5.81, the “increase of expression of 3hibdh by 3-HP” value (3hibdh; in the microorganisms (Table 7), 25 mM 3-HP in nutrient medium) was 14 fold and the “inducer of expression of 3hpdH” value (3hpdh; FIG. 5) was “acts as an inducer”. The “fold increase of 3hpdh mRNA expression” value (3hpdh; [5]) was 46 fold, the “3hpdh expression on addition of 3-HP” value (3hpdh; strain with C3 LysR gene removed) was “not amplified” and the “fold increase of 3hibdhIV mRNA expression” value (3hibdhIV; [5]) was 146 fold. The “3hibdhIV expression on addition of 3-HP” value (3hibdhIV; [6]) was “did not increase the expression”, the “fold increase of mmsadh mRNA expression” value (mmsadh [4]; [5]) was 137 fold and the “mmsadh expression on addition of 3-HP” value (mmsadh [4]; [6]) was “did not increase the expression”.
